{
  "source": "ChEMBL document CHEMBL1151076",
  "about": "“Discovery of MK-0476, a potent and orally active leukotriene D4 receptor antagonist devoid of peroxisomal enxyme induction” (Bioorg Med Chem Lett, 1995)",
  "key": {"Mus musculus [1]": {"system": "Mus musculus", "test": "Liver weight increase in mice after administration of 400 mg/kg perorally for 4 days was determined.", "assay_type": "functional", "conditions": "route oral"}, "Mus musculus [2]": {"system": "Mus musculus", "test": "Peroxisomal enzyme induction in mice after administration of 400 mg/kg perorally for 4 days was determined.", "assay_type": "functional", "conditions": "route oral"}, "[3]": {"biological_target": "T1, Cysteinyl leukotriene receptor 1 (Cavia porcellus, UniProt Q2NNR5)", "T1 sequence (Q2NNR5 whole entry)": "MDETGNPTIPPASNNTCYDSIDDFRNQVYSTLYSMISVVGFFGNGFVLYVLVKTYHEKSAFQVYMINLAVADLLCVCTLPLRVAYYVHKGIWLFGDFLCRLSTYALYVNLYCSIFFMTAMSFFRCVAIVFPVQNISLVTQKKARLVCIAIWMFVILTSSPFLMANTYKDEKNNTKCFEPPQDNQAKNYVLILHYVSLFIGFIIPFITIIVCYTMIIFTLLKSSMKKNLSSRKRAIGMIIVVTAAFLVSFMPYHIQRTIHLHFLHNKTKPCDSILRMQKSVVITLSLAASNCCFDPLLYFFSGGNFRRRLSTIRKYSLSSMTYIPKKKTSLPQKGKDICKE", "test": "Concentration required for inhibition of binding of [3H]LTD4 to guinea pig lung membranes", "assay_type": "tissue-based, Membrane"}, "[4]": {"test": "Reduction of the increase in pulmonary resistance after 4 hr of administration of 0.01 mg/kg to squirrel monkey", "assay_type": "functional"}, "[5]": {"test": "Bioavailability in squirrel monkey", "assay_type": "ADME, organism-based", "conditions": "saimiri, in vivo; read-out: Bioavailabiility"}, "[6]": {"test": "Reduction in the decrease in dynamic compliance after 4 hr of administration of 0.01 mg/kg to squirrel monkey", "assay_type": "functional"}, "[7]": {"test": "Terminal half-life was determined", "assay_type": "ADME"}, "Cavia porcellus": {"organism": "Cavia porcellus", "test": "Antagonistic activity of leukotriene D4-induced contractions of non-tonal guinea-pig trachea", "assay_type": "functional, organism-based", "conditions": "read-out: pA2 (converted)"}, "[8]": {"biological_target": "T1, Cysteinyl leukotriene receptor 1", "test": "Concentration required for inhibition of binding of [3H]-LTD4 to guinea pig lung membranes (different expt)", "assay_type": "tissue-based, Membrane"}, "Mus musculus [9]": {"system": "Mus musculus", "test": "Peroxisomal enzyme induction in mice after administration of 200 mg/kg perorally for 4 days was determined.", "assay_type": "functional", "conditions": "route oral"}, "Mus musculus [10]": {"system": "Mus musculus", "test": "Liver weight increase in mice after administration of 200 mg/kg perorally for 4 days was determined.", "assay_type": "functional", "conditions": "route oral"}},
  "data": [
    {"smiles": "CC(C)(CC(=O)O)S[C@H](CCc1ccccc1C(C)(C)O)c1cccc(/C=C/c2ccc3ccc(Cl)cc3n2)c1", "values": [
      {"measurement": "LWI", "setting": "Mus musculus [1]", "result": 3, "unit": "%"},
      {"measurement": "PEI", "setting": "Mus musculus [2]", "result": -10, "unit": "%"},
      {"measurement": "IC50", "setting": "[3]", "result": 0.68, "unit": "nM"}
    ]},
    {"smiles": "CN(C)C(=O)CCS[C@H](SCCC(=O)[O-])c1cccc(/C=C/c2ccc3ccc(Cl)cc3n2)c1.[Na+]", "values": [
      {"measurement": "LWI", "setting": "Mus musculus [1]", "result": 0, "unit": "%"},
      {"measurement": "PEI", "setting": "Mus musculus [2]", "result": 65, "unit": "%"},
      {"measurement": "IC50", "setting": "[3]", "result": 3.1, "unit": "nM"}
    ]},
    {"smiles": "C[C@@H](CC(=O)O)S[C@H](CCc1ccccc1C(C)(C)O)c1cccc(/C=C/c2ccc3ccc(Cl)cc3n2)c1", "values": [
      {"measurement": "LWI", "setting": "Mus musculus [1]", "result": 11, "unit": "%"},
      {"measurement": "PEI", "setting": "Mus musculus [2]", "result": 24, "unit": "%"},
      {"measurement": "IC50", "setting": "[3]", "result": 0.33, "unit": "nM"}
    ]},
    {"smiles": "CC(S[C@H](CCc1ccccc1C(C)(C)O)c1cccc(/C=C/c2ccc3ccc(Cl)cc3n2)c1)C(C)C(=O)O", "note": "(some centres not stated)", "values": [
      {"measurement": "LWI", "setting": "Mus musculus [1]", "result": 27, "unit": "%"},
      {"measurement": "PEI", "setting": "Mus musculus [2]", "result": 673, "unit": "%"},
      {"measurement": "IC50", "setting": "[3]", "result": 0.44, "unit": "nM"}
    ]},
    {"smiles": "CC(C)(O)c1ccccc1CC[C@@H](SCC1(CC(=O)O)CC1)c1cccc(/C=C/c2ccc3ccc(Cl)cc3n2)c1", "note": "[MONTELUKAST]", "values": [
      {"measurement": "LWI", "setting": "Mus musculus [1]", "result": 0, "unit": "%"},
      {"measurement": "PEI", "setting": "Mus musculus [2]", "result": 16, "unit": "%"},
      {"measurement": "Reduction", "setting": "[4]", "result": 56, "unit": "%"},
      {"measurement": "bioavailability", "setting": "[5]", "result": 42, "unit": "%"},
      {"measurement": "Reduction", "setting": "[6]", "result": 78, "unit": "%"},
      {"measurement": "half-life", "setting": "[7]", "result": 4, "unit": "h"},
      {"measurement": "Kb", "setting": "Cavia porcellus", "result": 0.501, "unit": "nM"}
    ]},
    {"smiles": "C[C@H](S[C@H](CCc1ccccc1C(C)(C)O)c1cccc(/C=C/c2ccc3ccc(Cl)cc3n2)c1)[C@@H](C)C(=O)O", "values": [
      {"measurement": "LWI", "setting": "Mus musculus [1]", "result": 32, "unit": "%"},
      {"measurement": "PEI", "setting": "Mus musculus [2]", "result": 393, "unit": "%"},
      {"measurement": "IC50", "setting": "[3]", "result": 2.3, "unit": "nM"}
    ]},
    {"smiles": "CN(C)C(=O)CCSC(SCCC(=O)[O-])c1cccc(/C=C/c2ccc3ccc(Cl)cc3n2)c1.[Na+]", "note": "(configuration not stated)", "values": [
      {"measurement": "LWI", "setting": "Mus musculus [1]", "result": 38, "unit": "%"},
      {"measurement": "PEI", "setting": "Mus musculus [2]", "result": 318, "unit": "%"},
      {"measurement": "IC50", "setting": "[8]", "result": 2.5, "unit": "nM"},
      {"measurement": "IC50", "setting": "[3]", "result": 1.5, "unit": "nM"}
    ]},
    {"smiles": "CCC(CC(=O)O)S[C@H](CCc1ccccc1C(C)(C)O)c1cccc(/C=C/c2ccc3ccc(Cl)cc3n2)c1", "note": "(some centres not stated)", "values": [
      {"measurement": "LWI", "setting": "Mus musculus [1]", "result": 9, "unit": "%"},
      {"measurement": "PEI", "setting": "Mus musculus [2]", "result": 188, "unit": "%"},
      {"measurement": "IC50", "setting": "[3]", "result": 0.58, "unit": "nM"}
    ]},
    {"smiles": "CC[C@H](CS[C@H](CCc1ccccc1C(C)(C)O)c1cccc(/C=C/c2ccc3ccc(Cl)cc3n2)c1)C(=O)O", "values": [
      {"measurement": "PEI", "setting": "Mus musculus [9]", "result": 608, "unit": "%"},
      {"measurement": "IC50", "setting": "[3]", "result": 0.2, "unit": "nM"},
      {"measurement": "LWI", "setting": "Mus musculus [10]", "result": 63, "unit": "%"}
    ]},
    {"smiles": "C[C@H](CC(=O)O)S[C@H](CCc1ccccc1C(C)(C)O)c1cccc(/C=C/c2ccc3ccc(Cl)cc3n2)c1", "values": [
      {"measurement": "LWI", "setting": "Mus musculus [1]", "result": 12, "unit": "%"},
      {"measurement": "PEI", "setting": "Mus musculus [2]", "result": 109, "unit": "%"},
      {"measurement": "IC50", "setting": "[3]", "result": 0.6, "unit": "nM"}
    ]},
    {"smiles": "C[C@H](C(=O)O)[C@@H](C)S[C@H](CCc1ccccc1C(C)(C)O)c1cccc(/C=C/c2ccc3ccc(Cl)cc3n2)c1", "values": [
      {"measurement": "LWI", "setting": "Mus musculus [1]", "result": 10, "unit": "%"},
      {"measurement": "PEI", "setting": "Mus musculus [2]", "result": 91, "unit": "%"},
      {"measurement": "IC50", "setting": "[3]", "result": 0.3, "unit": "nM"}
    ]},
    {"smiles": "CC(C)(CS[C@H](CCc1ccccc1C(C)(C)O)c1cccc(/C=C/c2ccc3ccc(Cl)cc3n2)c1)CC(=O)O", "values": [
      {"measurement": "LWI", "setting": "Mus musculus [1]", "result": 2, "unit": "%"},
      {"measurement": "PEI", "setting": "Mus musculus [2]", "result": 25, "unit": "%"},
      {"measurement": "IC50", "setting": "[3]", "result": 0.3, "unit": "nM"}
    ]},
    {"smiles": "CC(CS[C@H](CCc1ccccc1C(C)(C)O)c1cccc(/C=C/c2ccc3ccc(Cl)cc3n2)c1)CC(=O)O", "note": "(some centres not stated)", "values": [
      {"measurement": "LWI", "setting": "Mus musculus [1]", "result": 10, "unit": "%"},
      {"measurement": "PEI", "setting": "Mus musculus [2]", "result": 18, "unit": "%"},
      {"measurement": "IC50", "setting": "[3]", "result": 0.43, "unit": "nM"}
    ]},
    {"smiles": "CC(CC(=O)O)S[C@H](CCc1ccccc1C(C)(C)O)c1cccc(/C=C/c2ccc3ccc(Cl)cc3n2)c1", "note": "(some centres not stated)", "values": [
      {"measurement": "PEI", "setting": "Mus musculus [9]", "result": 22, "unit": "%"},
      {"measurement": "IC50", "setting": "[3]", "result": 0.79, "unit": "nM"},
      {"measurement": "LWI", "setting": "Mus musculus [10]", "result": 5, "unit": "%"}
    ]}
  ]
}
